This series is described as follows: 13C NMR pH titration of sodium lactate/lactic acid solutions, nonlinear least squares fit of Equation 5. In kind it is physicochemical. As to conditions: carboxyl group of lactic acid, about 1 weight % sodium lactate and lactic acid, pH about 2 to about 5.5, fit of 13C chemical shift vs pH.

The values that follow come from US11892435B2, “NMR methods for measuring pH in oral care, home care and personal care products” (Colgate-Palmolive Company, priority 2018, dated 2024).

Protocol: In at least one implementation, the chemical species or molecular or molecular entity may be or include a carboxyl group, such as the carboxyl group of a lactic acid, where the observed C-13 chemical shift can be expressed according to equation (5): pH=pKa+log [(δC−δCO2H)/(δCO2^−−δC)] (5)
A calibration curve was prepared for measuring lactic acid with an NMR by using standardized buffered solutions of sodium lactate and lactic acid at different mole ratios in water at varying pH. The solutions included a total concentration of sodium lactate and lactic acid at about 1 weight %, and the pH was varied from a pH of about 2 to about 5.5. NMR was performed on the samples to obtain C-13 chemical shift values. A pH electrode was utilized to measure the pH of each of the standardized samples, and the calibration curve was prepared by correlating the measured C-13 chemical shift to the pH values measured by the pH electrode, as illustrated in FIG. 4. As such, the observed ^13C chemical shift of the carbonyl group (δC) was expressed as the weighted average of the ^13C chemical shift between CO2H (δCO2H) and CO2^−(δCO2^−). The pH of the carboxyl group was described in terms of pKa of the carboxyl group, as represented by Equation 5. pH=pKa+log [(δC−δCO2H)/(δCO2^−−δC)] (5)
The nonlinear least squares fit was applied to determine the values of the pKa, the δCO2^−, and the δCO2H.

Turning to `CC(O)C(=O)O` (stereo not shown) [lactic acid], the pKa (commonly the negative logarithm of the acid dissociation constant) is 3.73.
